Reference: paper PMC8397403, “Physiologically Based Pharmacokinetic Modeling of Transporter-Mediated Hepatic Disposition of Imaging Biomarker Gadoxetate in Rats” (Molecular Pharmaceutics, 2021)
Where two headings read alike, the source gives them in different places. One block for each compound: values may come before it.

Legend:
[1] = Pitavastatin uptake in plated rat hepatocytes with and without rifamycin SV (positive control for transporter activity); type: in vitro ADME; conditions: male, Sprague-Dawley, rat, plated primary rat hepatocytes; pitavastatin 0.2 μM, absence of rifamycin SV, 0.5-2 min; mean (CV 24%); read-out: Unbound intrinsic uptake clearance (CLint,u)
Protocol: (§1) Male adult Sprague-Dawley rats (Charles River, Margate, Kent, UK) were housed in groups of two in individually ventilated cages with free access to food (Chow rat and mouse diet) and fresh drinking water. The designated rat housing facility maintained a controlled temperature (20 ± 3 °C), humidity (40–70%), and 12 h light/dark cycle conditions. All animal protocols were approved by the University of Manchester review committee and adhered to the UK Home Office Animals (Scientific Procedures) Act (1986). Rats (250–300 g) were sacrificed using CO2 overdose followed by cervical dislocation in the morning of the study day. The kinetics experiment, as described below, was performed using n = 4 animals. […] Following sample preparation including addition of internal standard (Table S1), gadoxetate and pitavastatin in cell samples, and gadoxetate in media samples, were quantified by liquid chromatography–tandem mass spectrometry (LC–MS/MS). LC–MS/MS quantification was performed using selective reaction monitoring (SRM) against calibration standards; only standards within 30% of nominal concentration were included. The protein content of plated rat hepatocytes was measured using the Pierce BCA Protein Assay Kit (Thermo Fisher Scientific, Paisley, UK). […]

[2] = test system: active uptake transport of gadoxetate into the liver; assay: Simultaneous PBPK fitting of gadoxetate DCE-MRI data in control and rifampicin phases; type: in vivo, rat; conditions: Rattus norvegicus
Protocol: DCE–MRI data generated using the 3D Fast Low Angle Shot RF-spoiled gradient echo sequence (FLASH) protocol in male Wistar-Han rats were used for assessing the PBPK IVIVE performances and for obtaining some of the PBPK parameters within the bottom-up and top-down approaches, respectively. The DCE–MRI data were acquired in a multicenter study at two magnetic field strengths, 4.7 and 7 T. Gadoxetate was administered at a dose of 25 μmol/kg, either alone or 1 h after IV administration of 10 mg/kg rifampicin. When gadoxetate was administered alone (control arm), 43 profiles of blood, spleen, and liver measured at a field strength of 4.7 T and 52 profiles of blood, spleen, and liver measured at 7 T were available. In the case of gadoxetate administered with rifampicin, 7 blood, spleen, and liver profiles at a field strength equal to 4.7 T and 6 at 7 T were available. All gadoxetate DCE–MRI data and study protocols are detailed in a companion paper (Hines et al. in submission).
The DCE–MRI data used in this study were reported as ΔR1. Therefore, the relationship between the compartmental concentrations represented by the PBPK model state variables and the ΔR1 measurements for the blood, liver, and spleen needed to be described. The linear relationship in eq 4 is not valid for ΔR1 of the liver, ΔR1,liv, because intracellular and extracellular tissue compartments have different relaxivities. To derive ΔR1,liv, a volume fraction-weighted mean of the contributions of the gadoxetate concentration in all the compartments used to model the liver was performed.[40] In the spleen, the entire distribution space was supposed to have the same relaxivity as blood and, therefore, eq 4 can be applied directly to derive spleen concentrations from ΔR1,spl. Concerning the blood, the blood value for r1 in Table 1 allows ΔR1,b to be directly related to the blood concentration. The relations between ΔR1,liv, ΔR1,spl, and ΔR1,b and the concentrations of the PBPK compartments are shown in eq 7. [drawing 7] 7 cspl,extr is the extracellular concentration in the spleen and Vspl,extr is the extracellular volume of the spleen and Vliv and Vspl are the whole volumes of liver and spleen. r1,liv,extr and r1,spl,extr were assumed to be equal to r1,b, as described in Hines et al.
In fact, each of the data are acquired during a time interval Δt, which was 57 s in the current dataset. To account for this characteristic when performing the parameter estimation, the residuals were calculated as the difference of the observed ΔR1 corresponding to a given time interval minus the mean of the simulated PBPK ΔR1 within the same interval, as explained in the Supporting Information, Section 4.
The extent of interaction with rifampicin was estimated by performing a simultaneous fitting of gadoxetate ΔR1 in the control and inhibitory phase. In this analysis, PS was considered the same for both phases, whereas the other parameters were separately estimated in the absence (CLactive and CLbiliary) and in the presence of rifampicin (CLactive,inh and CLbiliary,inh). CLbiliary,inh was considered to account for possible inhibition of Mrp2 in rat by rifampicin, as previously reported.[45] To understand the impact of the inclusion of the liver-imaging data on the parameter optimization, the simultaneous estimation was also performed considering only the blood data.
All the PBPK analyses were performed in MATLAB R2020a,[50] the ordinary differential equations were solved with the function “ode15s”, while the parameter optimization was performed with the function “lsqnonlin”. The uncertainty of the parameters estimate was evaluated with the case-bootstrap,[51] using 1000 samples.

plated rat hepatocytes = assay: Pitavastatin uptake in plated rat hepatocytes with and without rifamycin SV (positive control for transporter activity); type: in vitro ADME; conditions: 100 μM rifamycin SV; pitavastatin 0.2 μM; mean (CV 23%)
Protocol: as §1

hepatocyte CLint at 0.2 μM [1]: 95.7 µL/min/1e6 cells
SMILES: O=C(O)C[C@H](O)C[C@H](O)/C=C/c1c(C2CC2)nc2ccccc2c1-c1ccc(F)cc1 [pitavastatin]

SMILES: CO[C@H]1/C=C/O[C@@]2(C)Oc3c(C)c(O)c4c(O)c(c(/C=N/N5CCN(C)CC5)c(O)c4c3C2=O)NC(=O)/C(C)=C\C=C\[C@H](C)[C@H](O)[C@@H](C)[C@@H](O)[C@@H](C)[C@H](OC(C)=O)[C@@H]1C [rifampicin]
inhibition at 10 mg/kg ([2]; iv, rifampicin i.v. 10 mg/kg, fit with blood, spleen and liver data, read-out: inhibition of gadoxetate CLactive (active uptake into the liver)): 96% | inhibition at 10 mg/kg ([2]; rifampicin 10 mg/kg, only blood ΔR1 profiles (without liver data), read-out: inhibition of gadoxetate CLactive, blood ΔR1 only): 84%

SMILES: CO[C@H]1/C=C/O[C@@]2(C)Oc3c(C)c(O)c4c(O)c(cc(O)c4c3C2=O)NC(=O)/C(C)=C\C=C\[C@H](C)[C@H](O)[C@@H](C)[C@@H](O)[C@@H](C)[C@H](OC(C)=O)[C@@H]1C [rifamycin SV]
reduction of the uptake of pitavastatin (plated rat hepatocytes): 54%
